Laboratory results reported in patent publication US12649765B2 (Arizona Board of Regents on Behalf of the University of …, priority 2020, dated 2026).
Entries after “also recorded” stand apart in the source; their conditions may differ. Where a SMILES comes first, the peptide text is derived from it. Bridges are numbered along the chain shown (N, C = ends). [ ]: non-standard residue; d: D form. The star is where a group is joined. X1 = OC[C@H]1OC(*)[C@H](O)[C@@H](O)[C@@H]1O; Dap = NC[C@H](N)C(=O)O

Key:
[1] = biological target: human Mu Opioid Receptor (MOR) (Homo sapiens, UniProt P35372); assay: biochemical; format: binding
[2] = biological target: OTR (Homo sapiens, UniProt P30559); assay: EC50 (nM) | OTR
Description: Table printed on a drawing sheet, FIG. 6
The patent's description of the figure: FIG. 6 is a table showing EC50 for OXTR agonistic activity for some of the representative cyclic oligopeptides of the invention.
First copying reader's note: Each value cell holds the EC50 together with its ± error; NA is not defined on the sheet.

[3] = Paclitaxel-induced CIPN, Von Frey filaments mechanical threshold, icv injection; format: in vivo, CD-1 mice; settings: 10 nmol icv on day 8, 2 mg/kg paclitaxel on days 1, 3, 5, 7
[4] = 52° C. warm water tail flick assay, icv injection; format: in vivo; settings: 10 nmol icv, male and female CD-1 mice
[5] = 52° C. warm water tail flick assay, iv injection; format: in vivo, CD-1 mice; settings: 10 mg/kg iv; for anti-nociception in tail flick assay: 10 second cutoff, male and female CD-1 mice

Chain of human Mu Opioid Receptor (MOR) (P35372 whole entry): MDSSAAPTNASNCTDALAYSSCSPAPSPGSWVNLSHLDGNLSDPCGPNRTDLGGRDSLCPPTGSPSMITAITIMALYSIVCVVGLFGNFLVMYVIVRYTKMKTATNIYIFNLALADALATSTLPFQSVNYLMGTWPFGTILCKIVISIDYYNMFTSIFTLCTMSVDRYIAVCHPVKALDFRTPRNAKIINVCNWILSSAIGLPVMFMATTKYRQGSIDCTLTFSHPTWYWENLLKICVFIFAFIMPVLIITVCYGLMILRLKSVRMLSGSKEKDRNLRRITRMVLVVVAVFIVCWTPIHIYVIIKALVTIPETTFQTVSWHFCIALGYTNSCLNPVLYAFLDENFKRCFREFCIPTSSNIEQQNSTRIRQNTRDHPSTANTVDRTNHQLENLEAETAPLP
Chain of OTR (P30559 whole entry, looked up): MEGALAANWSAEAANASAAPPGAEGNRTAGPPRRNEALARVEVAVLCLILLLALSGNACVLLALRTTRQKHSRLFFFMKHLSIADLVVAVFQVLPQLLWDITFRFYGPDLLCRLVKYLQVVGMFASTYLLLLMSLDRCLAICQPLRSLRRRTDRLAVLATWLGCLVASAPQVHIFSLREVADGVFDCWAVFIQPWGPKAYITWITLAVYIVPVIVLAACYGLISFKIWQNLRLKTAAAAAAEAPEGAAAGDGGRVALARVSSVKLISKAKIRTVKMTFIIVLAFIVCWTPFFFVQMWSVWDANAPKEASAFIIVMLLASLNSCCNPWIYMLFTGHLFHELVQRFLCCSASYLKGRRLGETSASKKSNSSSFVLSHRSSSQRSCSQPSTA

| SMILES | IC50 [1] [nM] | Ki [1] [nM] | EC50 [2] [nM] | anti-nociception in CIPN model (mechanical threshold) [3] | anti-nociception in tail flick assay [4] | peak effect in tail flick assay [5] | anti-nociception in tail flick assay [5] | anti-nociception in tail flick assay ([5]; listed as Native OT) |
| --- | --- | --- | --- | --- | --- | --- | --- | --- |
| CC[C@H](C)[C@@H]1NC(=O)[C@H](Cc2ccc(O)cc2)NC(=O)[C@@H](N)CC(=O)NC[C@@H](C(=O)N2CCC[C@H]2C(=O)N[C@@H](CC(C)C)C(=O)NCC(N)=O)NC(=O)[C@H](CC(N)=O)NC(=O)[C@H](CCC(N)=O)NC1=O [2LS118-1, Asp-Tyr-Ile-Gln-Asn-Dap-Pro-Leu-Gly-CONH2 (SEQ ID NO: 5)] (H-DYIQN[Dap]PLG-NH2; lactam 1-6) | > 2500 | > 2500 | 3760 ± 3120 | – | – | – | – | – |
| CC[C@H](C)[C@@H]1NC(=O)[C@H](Cc2ccc(O)cc2)NC(=O)[C@@H](N)CCC(=O)NC[C@@H](C(=O)N2CCC[C@H]2C(=O)N[C@@H](CC(C)C)C(=O)NCC(N)=O)NC(=O)[C@H](CC(N)=O)NC(=O)[C@H](CCC(N)=O)NC1=O [2LS118-2, Glu-Tyr-Ile-Gln-Asn-Dap-Pro-Leu-Gly-CONH2 (SEQ ID NO: 6)] (H-EYIQN[Dap]PLG-NH2; lactam 1-6) | > 2500 | > 2500 | 7040 ± 2960 | – | – | – | – | – |
| CC[C@H](C)[C@@H]1NC(=O)[C@H](Cc2ccc(O)cc2)NC(=O)[C@@H](N)CNC(=O)C[C@@H](C(=O)N2CCC[C@H]2C(=O)N[C@@H](CC(C)C)C(=O)NCC(N)=O)NC(=O)[C@H](CC(N)=O)NC(=O)[C@H](CCC(N)=O)NC1=O [2LS118-3, Dap-Tyr-Ile-Gln-Asn-Asp-Pro-Leu-Gly-CONH2 (SEQ ID NO: 7)] (H-[Dap]YIQNDPLG-NH2; lactam 1-6) | > 2500 | > 2500 | – | – | – | – | – | – |
| CC[C@H](C)[C@@H]1NC(=O)[C@H](Cc2ccc(O)cc2)NC(=O)[C@@H](N)CC(=O)NC[C@@H](C(=O)N2CCC[C@H]2C(=O)N[C@@H](CC(C)C)C(=O)N[C@@H](COC2O[C@H](CO)[C@@H](O)[C@H](O)[C@H]2O)C(N)=O)NC(=O)[C@H](CC(N)=O)NC(=O)[C@H](CCC(N)=O)NC1=O (stereo partly drawn) [2LS118-4, Asp-Tyr-Ile-Gln-Asn-Dap-Pro-Leu-SerGlc-CONH2 (SEQ ID NO: 8)] (H-DYIQN[Dap]PLS(X1)-NH2; lactam 1-6; N-terminus assumed) | – | – | – | high anti-nociceptive efficacy; also recorded: substantially equivalent anti-nociception | the same degree and duration of anti-nociceptive activity; also recorded: substantially equivalent anti-nociception | significantly higher peak effect than 2LS118-1 | near-maximal efficacy comparable to 10 mg/kg morphine; also recorded: almost half to full maximal efficacy vs. morphine | – |
| CC[C@H](C)[C@@H]1NC(=O)[C@H](Cc2ccc(O)cc2)NC(=O)[C@@H](N)CSSC[C@@H](C(=O)N2CCC[C@H]2C(=O)N[C@@H](CC(C)C)C(=O)NCC(N)=O)NC(=O)[C@H](CC(N)=O)NC(=O)[C@H](CCC(N)=O)NC1=O [native OT, Cys-Tyr-Ile-Gln-Asn-Cys-Pro-Leu-Gly-CONH2 (SEQ ID NO: 1), reference compound] | – | – | – | – | the same degree and duration of anti-nociceptive activity; also recorded: substantially equivalent anti-nociception | – | no anti-nociception; also recorded: no efficacy | no effect |
